Measured values from patent US20200246438A1, “TARGETING GDF6 AND BMP SIGNALING FOR ANTI-MELANOMA THERAPY” (UNIVERSITY OF MASSACHUSETTS, priority 2015, published 2020).
Entries after “also recorded” stand apart in the source; their conditions may differ.

What was measured:
A375 melanoma cells [1] = test: clonogenic growth / colony formation assay; format: cell-based, human; conditions: A375-EMPTY vs A375-SMAD1DVD cells treated with DMH1
Description: (§1) For growth curves 50,000 live cells were seeded per well in a 6-well tissue culture plate on day 0. The numbers of live cells were calculated every day using an automated cell counter (Nexcelom Bioscience Cellometer Auto T4) following standard procedures. All assays were performed with technical replicates. For clonogenic assays, 3,000 live cells were seeded in a 10 cm tissue culture plate. After 3 weeks, colonies were fixed and stained using bromophenol blue in acetone. ImageJ was used to quantify the number of colonies. In assays with DMH1 treatment, control or DMH1-containing media was replaced every other day. For soft agar assays a 0.5% bottom layer (1:1 with 1% agar and 2×DMEM with 20% FBS) and a 0.3% top layer (1:1 with 0.6% agar and 2×DMEM with 20% FBS) were used. 3,000 live cells per well of a 6-well tissue culture plate were added in the top layer. Media was added initially then replaced every 3 days. After 3 weeks, colonies were stained with nitroblue tetrazolium chloride overnight at 37° C. Once stained, individual wells were photographed, and ImageJ was used to count the number of colonies. All these assays were done in triplicate, and experiments were repeated at least twice. A representative image of each has been shown.

A375 melanoma cells [2] = test: A375 mouse xenografts treated with DMH1, tumor volume; format: in vivo; conditions: 25 mg/kg DMH1 intraperitoneally every other day vs vehicle
Description: All animal protocols were approved by the UMMS Institution Animal Care and Use Committee (A-2016, A-2171). Mice were randomly allocated to individual experimental groups. No blinding was done as animal groups were identified by tagging and cage labeling. Animals were excluded, according to pre-established criteria, if the tumor volume reached>1,000 mm^3; if tumor size or location affected the mobility or general health of animal, the animal was euthanized and excluded from the experiment or the complete experiment was terminated. A375 cells stably expressing an EGFP or GDF6 or SMAD1 shRNA and/or empty vector or GDF6-expressing vector or SMAD1DVD-overexpressing vector were subcutaneously injected into the flanks of 6-8-week-old BALB/c nu/nu female mice (Taconic Farms) to produce orthotopic primary tumor. Primary tumor growth was monitored every 3 days with calipers, and the tumor volume was calculated as described previously (C. Gazin, N. Wajapeyee, S. Gobeil, C. M. Virbasius, M. R. Green, An elaborate pathway required for Ras-mediated epigenetic silencing. Nature 449, 1073-1077 (2007)). For GDF6 knockdown, SMAD1 knockdown and epistasis experiments, […] live cells were injected. For GDF6 overexpression experiments, 1×10^6 live cells were injected. […] The growth of the tumor was monitored as described above. […]

A375 melanoma cells [3] = test: growth curves by direct cell counting, A375; format: cell-based, human; conditions: 10 μM DMH1 vs control media
Description: as §1

SKMEL28 melanoma cells = test: growth curves by direct cell counting, SKMEL28; format: cell-based, human; conditions: SKMEL28 cells treated with DMH1 vs control
Description: as §1

[4] = system: BMP signaling (phospho-SMAD1); test: Western blot of BMP signaling (phospho-SMAD1) in DMH1-treated A375 cells; format: cell-based, human; conditions: 10 μM DMH1, Western blot
Description: Protein extracts were prepared as previously described (S. D. Epstein LB, Hunte-McDonough B, harris C A, Cytokines: A pratical approach (Balkwill F R., ed). 81-93 (1991)). Extracts were separated on 12% SDS-PAGE gels. Blots were probed with primary antibodies (GDF6 (Sigma PRS4691; 1:1000), phospho-SMAD1/5/8 (Cell Signaling 13820; 1:1000), SMAD1 (Cell Signaling 9743; 1:500), Total SMAD1/5/8 (Santa Cruz sc-6031-R; 1:1000), FLAG (Sigma F3165, 1:2000), GAPDH (Abcam 8245; 1:2000)) overnight at 4° C., washed five times in TBS plus 0.1% Tween (TBST) and then incubated with the appropriate HRP-conjugated secondary antibody (Jackson Labs) for 1 hour at room temperature. Membranes were washed five times in TBST and visualized on autoradiography film after incubating with ECL reagent (Supersignal West Pico or Supersignal West Femto; Thermo Scientific).

MeWo melanoma cells = test: proliferation of GDF6-knockdown cells supplemented with recombinant GDF6 protein; format: cell-based, human; conditions: MeWo cells treated with shRNAs targeting GDF6, recombinant GDF6 protein added to culture media

Row | Molecule | growth defects caused by DMH1 in SMAD1DVD-expressing cells (colony formation) (A375 melanoma cells [1]) | tumor volume / tumor growth (A375 melanoma cells [2]) | cell growth (growth curves) (A375 melanoma cells [3]) | cell growth (growth curves) (SKMEL28 melanoma cells) | level of phospho-SMAD1 relative to total SMAD protein [4] | proliferation of GDF6-knockdown cells (MeWo melanoma cells) | proliferation of GDF6-knockdown cells (MeWo melanoma cells; listed as recombinant GDF6)
1 | CC(C)Oc1ccc(-c2cnc3c(-c4ccnc5ccccc45)cnn3c2)cc1 [DMH1] | reversed by SMAD1DVD | smaller tumors arose and grew more slowly; also recorded: decreased tumorigenicity; also recorded: abrogates melanoma growth | grew more slowly; also recorded: inhibits A375 melanoma cell growth | grew more slowly | reduced level of phospho-SMAD1 | – | –
2 | recombinant GDF6 protein: recombinant GDF6 protein added to culture media; soluble, extracellular BMP ligand (BMP13) (protein, UniProt Q6KF10 336-455, looked up) Growth/differentiation factor …: TAFASRHGKRHGKKSRLRCSKKPLHVNFKELGWDDWIIAPLEYEAYHCEGVCDFPLRSHLEPTNHAIIQTLMNSMDPGSTPPSCCVPTKLTPISILYIDAGNNVVYKQYEDMVVESCGCR | – | – | – | – | – | restored | able to sustain their proliferation
